Test results from US8124111B2, “Immunomodulation by altering sphingosine 1-phosphate lyase (SPL) activity” (Children's Hospital & Research Center at Oakland, priority 2005, dated 2012).
Blank lines part the entries; values can stand above or below the molecule they belong to.

Key:
SPL [1] = target: T1, SPL (Homo sapiens, UniProt O95470); conditions: cited from earlier work
T1 sequence (O95470 1-568): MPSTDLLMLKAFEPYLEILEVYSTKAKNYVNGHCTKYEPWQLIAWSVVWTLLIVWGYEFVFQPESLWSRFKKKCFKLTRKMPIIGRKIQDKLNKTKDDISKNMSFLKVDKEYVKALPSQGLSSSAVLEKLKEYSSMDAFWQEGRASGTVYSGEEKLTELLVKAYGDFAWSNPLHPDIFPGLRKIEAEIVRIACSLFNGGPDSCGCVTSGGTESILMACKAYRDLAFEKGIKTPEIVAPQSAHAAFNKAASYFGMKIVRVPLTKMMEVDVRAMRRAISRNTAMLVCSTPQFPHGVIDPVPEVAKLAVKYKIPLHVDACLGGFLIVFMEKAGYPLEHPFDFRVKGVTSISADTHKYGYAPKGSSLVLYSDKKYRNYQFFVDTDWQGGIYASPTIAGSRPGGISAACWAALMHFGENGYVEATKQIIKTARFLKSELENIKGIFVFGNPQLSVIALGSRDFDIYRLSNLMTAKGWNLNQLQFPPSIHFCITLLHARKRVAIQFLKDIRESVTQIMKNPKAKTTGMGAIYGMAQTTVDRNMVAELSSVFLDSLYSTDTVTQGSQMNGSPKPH

SPL [2] = target: T1, SPL; experiment: FTY720-P metabolism: stability in the presence of SPL, recovery quantified by HPLC; assay type: biochemical; parameters: expressed in transfected cells; host or cells: HEK293 infected with adenoviral vector; conditions: for stability in the presence of SPL (amount recovered by HPLC): incubated 0-24 hours with extracts of HEK293 cells overexpressing human SPL, standard SPL reaction conditions
Procedure: (A) Twenty nanomoles of FTY720-P were incubated with SPL enzyme for 0-24 hours under standard SPL reaction conditions in the absence of dihydrosphingosine 1-phosphate substrate. At the indicated times the reaction was stopped, and FTY720-P was recovered and quantified by HPLC. (B) Twenty nanomoles of S1P were incubated with extracts from cells overexpressing SPL for 0-24 hours, or alternatively, with extracts from cells containing pcDNA3.0 vector control which had no appreciable SPL activity (PC) for 2 hours. S1P was recovered and quantified by HPLC.
FTY720-P metabolism: Whole cell extracts of HEK293 cells stably overexpressing human SPL were prepared as previously described (Reiss et al., (2004) J Biol Chem 279, 1281-1290). These extracts contained approximately 700 picomoles/mg protein/minute of SPL activity. Twenty nanomoles FTY720-P were suspended in SPL reaction buffer (Van Veldhoven et al., (1991) J Biol Chem 266, 12502-12507), and 25 microliters of whole cell extract were added to initiate the reaction. At various time points, reaction was stopped by addition of a 2 ml mixture of chloroform and methanol (2:1 v/v), 1 ml of 1M KCl, 0.1 ml concentrated HCl. Sample was mixed by vortexing and centrifuged at 1200 rpm for 5 min. […] After derivatization with OPA, the sample was injected onto the HPLC for quantification. The HPLC analysis was conducted using a Beckman (Torrance, Calif., USA) system Gold 125 solvent module with a Spectra-Physics SP8410 fluorescence detector and a C18 (2) Luna 3 μm, 75×4.6 mm column from Phenomenex (CA). […] Recovery of S1P was determined by HPLC quantitation, as described below for S1P measurements in mouse tissues.
Confirmation of FTY720-P by LCMS: Samples corresponding to FTY720-P peak identified on HPLC were evaluated by LCMS to confirm FTY720-P by mass analysis. Twenty microliters of sample were injected into the LCMS and mass spectrum scans from 300 to 500 m/z and specific ions m/Z 388 and 410 were quantified for FTY720-P. A reverse phase C18 column from Phenomenex (2.1 mm×15 cm) was used. […]

SPL [3] = target: T1, SPL; experiment: Inhibition of SPL activity in vitro (whole cell extracts of HEK293 cells with human SPL adenoviral construct); assay type: biochemical; parameters: expressed in transfected cells; host or cells: HEK293 infected with adenoviral vector
Procedure: Various concentrations of FTY720 or its phosphorylated derivative (FTY720P) were incubated for 30 minutes on ice with whole cell extracts containing high SPL activity by virtue of a human SPL adenoviral expression construct. SPL activity was determined. (A) FTY720; (B) FTY720-P.
SPL enzyme assay: Tissues were homogenized by sonication in 9 volumes of ice-cold homogenization buffer (5 mM MOPS pH 7.5, 1 mM DTT, 1 mM EDTA, 0.25 M sucrose, and 5 micrograms/ml each chymostatin, leupeptin, pepstatin A and antipain). SPL assays were conducted using 50 micrograms protein per assay and radioactive [4,5 ^3H]DHS1P substrate, as described previously (Reiss et al., (2004) J Biol Chem 279, 1281-1290). For in vitro FTY720 and FTY720-P experiments, drug was incubated with whole cell extracts prepared from HEK293 cells infected with an adenoviral vector expressing human SPL. These extracts contained approximately 200 picomoles/mg protein/minute SPL activity. Drug was incubated with extracts for 30 minutes, followed by addition of extracts to reaction buffer and substrate to initiate the reaction.
Although treatment with FTY720 was associated with low (nanomolar) circulating drug levels, it was possible that local concentrations within cells and subcellular compartments may have been considerably higher, since FTY720 has been reported to be actively transported into cells by the actions of drug transporters that recognize long chain bases (Honig et al., (2003) J Clin Invest 111, 627-637).

[4] = tested on: human SPL luciferase reporter construct; experiment: SPL gene expression, human SPL luciferase reporter in HEK293 cells; assay type: cell-based; conditions: 0.3 μM or 3.0 μM, 24 hours
Procedure: (A) SPL gene expression. HEK293 cells were co-transfected with a human SPL luciferase reporter construct and the sea pansy luciferase reporter as a control for transfection efficiency. Twenty-four hours after transfection, cells were treated with 0.3 μM FTY720, 3.0 μM FTY720 or vehicle and incubated for another 24 hours at 37° C. Luciferase activity was then determined as a measure of expression, as described in Experimental Methods. Values shown are luciferase activity normalized to sea pansy luciferase; (B) SPL protein expression. Thymic extracts from control mice (time 0) and mice treated with FTY720 for 24 hours were evaluated for SPL protein expression by immunoblotting. Actin was used as a loading control.
SPL expression: To evaluate the effect of FTY720 and FTY720-P on SPL gene expression, HEK293 cells were treated for 30 minutes with 3 μM of either drug, followed by transfection with pSPL-BamHI, a human SPL-luciferase reporter construct. After 48 hours, reporter expression was determined by luciferase activity as described (Oskouian et al., (2005) J Biol Chem 280, 18403-18410)). Western blotting of mouse tissue extracts was performed using a 1:2000 dilution of polyclonal sera raised against the murine SPL C-terminal peptide: (NH2)—V-T-Q-G-N-Q-M-N-G-S—P—K—P—R—(COOH). [SEQ ID NO:11] […]

[5] = tested on: C3H murine splenocytes and thymocytes
Procedure: Cellular Immune Functions—Mitogen Induced Lymphoproliferation: Spleen and thymus tissues were harvested from wild type C3H mice, and cell suspensions were prepared as described previously (Mishell et al., (1980) in Selected Methods in Cellular Immunology (Mishell, B., and Shiigi, S., eds), pp. 3-27, WH Freeman and Company, San Francisco). Cells were dispersed in sterile medium in 96 well microtiter plates (Falcon) at a concentration of 1×10^6 cells/ml for spleen and 5×10^6 cells/ml for thymus. […] Cell proliferation was determined after 48 and 72 hours using the Cell Titer 96 Non-Radioactive Cell Proliferation Assay from Promega (Mannheim, Germany), according to the manufacturer's instructions.

SMILES: CCCCCCCCCCCCCCCC(=O)N[C@@H](CO)[C@H](O)C1=C(CCCCCCCCCCCCC)C1 [C16-cyclopropenylceramide]
altering SPL activity (SPL [1]): capable of altering SPL activity

stability in the presence of SPL (amount recovered by HPLC) (SPL [2]): remained stable for up to 24 hours
substrate for SPL (SPL [2]; standard conditions): did not serve as a substrate for SPL
dose dependence of SPL inhibition in vitro (SPL [3]): not dose-dependent
only concentration that was inhibitory to SPL activity in vitro (SPL [3]; 30 minutes incubation with extracts): 30 µM
SMILES: CCCCCCCCc1ccc(CC[C@](N)(CO)COP(=O)(O)O)cc1 [FTY720-P]
SPL gene expression (luciferase activity normalized to sea pansy luciferase) [4]: not affected

SMILES: CCCCCCCCCCCCCC1=C([C@@H](O)[C@H](CO)NC(=O)CCCCCCC)C1 [GT11, C8-cyclopropenylceramide]
non-specific cytotoxic effects (light microscopy) [5]: negligible
LPS-stimulated lymphoproliferation ([5]; two different dosages, 24 hours preincubation, 1 or 10 μg/ml LPS, read after 48 and 72 hours): reduced
altering SPL activity (SPL [1]): capable of altering SPL activity

stability in the presence of SPL (amount recovered by HPLC) (SPL [2]): diminished
SMILES: CCCCCCCCCCCCC/C=C/[C@@H](O)[C@@H](N)COP(=O)(O)O [S1P, Sphingosine-1-phosphate]

SMILES: Cc1ncc(CO)c(C)c1O [deoxypyridoxine]
altering SPL activity (SPL [1]): capable of altering SPL activity
